The test system of data set [1] is co-cultures of cortical neuronal and glial cells. More on the design: method as in PMID 33143429. The settings on record: cited from earlier work.
The test system of data set [2] is WT SLACK. More on the design: method as in PMID 33143429. As to conditions: whole-cell APC, HEK-293 cells; read-out: IC50 versus WT SLACK; cited from earlier work.
The next data set relates to hERG channel. More on the design: method as in PMID 33143429. The settings on record: Tl+-flux assay; cited from earlier work.
The subject of data set [3] is WT SLACK. More on the design: method as in PMID 32408169. As to conditions: whole-cell patch-clamp electrophysiology; read-out: IC50 versus WT SLACK; cited from earlier work. (In general: In patch-clamp work, channel activity is measured electrically.)
The next data set concerns hERG (KV11.1) channels. More on the design: method as in PMID 32408169. The settings on record: at 10 µM; cited from earlier work.
For the next data set, the system named is GABAA Cl– channels. More on the design: method as in PMID 33859800. As to conditions: binding displacement assay; cited from earlier work.
A further data set has as its system SLACK. More on the design: method as in PMID 33859800. The settings on record: whole-cell patch-clamp electrophysiology; read-out: IC50 versus WT SLACK; cited from earlier work.
The next data set relates to Kcnt1^L/L mice. More on the design: method as in PMID 36173683. The settings on record: mouse model using Kcnt1 L/L mice; cited from earlier work.
A further data set deals with T1, WT hSLACK (Homo sapiens, UniProt Q5JUK3).
T1 construct: host or cells: CHO-K1
T1 sequence (Q5JUK3 1-1235 isoform Q5JUK3-3): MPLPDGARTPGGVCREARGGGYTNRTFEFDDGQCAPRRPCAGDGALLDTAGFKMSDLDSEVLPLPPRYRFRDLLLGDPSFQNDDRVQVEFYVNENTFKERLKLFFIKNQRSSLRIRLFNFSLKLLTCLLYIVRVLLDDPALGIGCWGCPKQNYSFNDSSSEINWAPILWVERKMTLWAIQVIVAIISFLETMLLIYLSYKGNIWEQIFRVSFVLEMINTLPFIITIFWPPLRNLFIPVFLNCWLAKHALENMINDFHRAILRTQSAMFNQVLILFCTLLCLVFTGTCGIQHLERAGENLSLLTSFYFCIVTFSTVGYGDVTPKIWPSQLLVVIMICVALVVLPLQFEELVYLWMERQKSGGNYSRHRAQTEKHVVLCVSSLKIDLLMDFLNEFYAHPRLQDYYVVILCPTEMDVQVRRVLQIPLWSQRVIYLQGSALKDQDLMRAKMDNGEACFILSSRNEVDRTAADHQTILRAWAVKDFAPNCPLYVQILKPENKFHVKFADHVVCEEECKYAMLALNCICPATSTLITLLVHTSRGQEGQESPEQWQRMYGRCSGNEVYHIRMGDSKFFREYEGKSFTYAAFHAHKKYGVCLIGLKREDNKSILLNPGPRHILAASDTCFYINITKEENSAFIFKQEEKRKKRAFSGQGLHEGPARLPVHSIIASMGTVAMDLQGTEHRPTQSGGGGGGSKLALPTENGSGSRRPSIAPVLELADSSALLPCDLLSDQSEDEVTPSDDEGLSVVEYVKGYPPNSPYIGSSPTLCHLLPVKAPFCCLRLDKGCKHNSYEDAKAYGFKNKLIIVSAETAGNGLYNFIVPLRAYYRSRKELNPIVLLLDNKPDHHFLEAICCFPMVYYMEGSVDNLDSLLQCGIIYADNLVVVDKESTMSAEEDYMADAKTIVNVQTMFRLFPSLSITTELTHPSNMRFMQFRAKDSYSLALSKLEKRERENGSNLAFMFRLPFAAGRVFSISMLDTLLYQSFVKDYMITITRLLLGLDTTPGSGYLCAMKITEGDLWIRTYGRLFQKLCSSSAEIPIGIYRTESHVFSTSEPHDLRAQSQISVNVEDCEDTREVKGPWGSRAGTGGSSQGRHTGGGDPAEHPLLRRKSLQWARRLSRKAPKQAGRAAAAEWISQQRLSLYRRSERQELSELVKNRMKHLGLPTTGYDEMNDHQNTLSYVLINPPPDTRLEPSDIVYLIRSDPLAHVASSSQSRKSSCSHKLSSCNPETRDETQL
As to the kind of experiment: Whole-cell automated patch-clamp (APC) in CHO cells stably expressing WT hSLACK. The settings on record: for SLACK Imax: maximum inhibition at 30 µM test compound standardized to VU0606170 (set at 100%), WT hSLACK; for IC50: whole-cell APC, CHO cells stably expressing WT hSLACK, averages n ≥ 3, read-out: SLACK IC50. Format: cell-based. The protocol:
All new analogs were tested in our APC assay using CHO cells stably expressing WT SLACK using a concentration-response format with concentrations ranging from 0.125 to 30 μM in half-log steps and a minimum of three cells (replicates) per concentration series. […] Still, there were some notable results. For example, substitution at the 4-position was largely unfavorable regardless of the nature of the substituent (21, 24, 27, 30, and 33) apart from the 4-fluoro analog 18. […] As the trifluoromethyl group is similar in electronegativity to chlorine, but larger than both methyl and chlorine, perhaps the steric bulk of the trifluoromethyl is to blame for the poor potency of these analogs. With the exception of the fluoro (16–18) and cyano (28–30) analogs, substitution at the 3-position was favorable for SLACK activity, with 3-methoxy analog 32 standing out in this set.
Stably transfected monoclonal HEK293 cell lines expressing Slick, Maxi-K α1/β3, Maxi-K α1/β4, CaV3.2, GIRK 1/2, KV2.1, KV7.2, NaV1.7, and TASK-1 were generated as previously described. Stably transfected monoclonal HEK293 cell lines expressing hERG were generated as previously described. CHO-K1 cells expressing human Slack and disease-associated human Slack mutations, G288S and A934T, were generated by transfecting a PiggyBac TRE mammalian expression vector (VectorBuilder, Chicago, IL, USA) containing KCNT1. FuGENE 6 (Promega, Madison, WI, USA) transfection reagent and protocol, together with Opti-MEM (Thermo Fisher Scientific, Walkham, MA, USA), were utilized.
Automated patch-clamp recording was performed with a SyncroPatch 768 PE system (Nanion, Munich, Germany) as previously described. Whole-cell recordings were performed at room temperature. Cells were harvested by first washing with PBS without Mg^2+ or Ca^2+ (Gibco, Billings, MT, USA) to remove cell culture media, followed by dissociation with TryPLE (Gibco, Billings, MT, USA). Cells were then resuspended and diluted to 100,000 cells/mL in external solution. External solution contained 105 mM NaCl, 4 mM KCl, 1 mM MgCl2, 5 mM CaCl2, 10 mM HEPES, and 40 mM N-Methyl-D-glucamine chloride, titrated to pH of 7.4 and osmolarity of 300 mOsm/kg; internal solution contained 70 mM NaCl, 70 mM KF, 10 mM KCl, 5 mM EGTA, and 5 mM HEPES, titrated to a pH of 7.2 and osmolarity of 295 mOsm/kg.
The APC protocol was set as follows: Cells were held at a […] of −80 mV for 100 ms, then a ramp protocol was performed from −100 mV to 80 mV at 0.4 mV/ms, followed by holding the cell at −80 mV for another 100 ms, then steps were performed at −20 mV, 0 mV, +20 mV, +40 mV, and +60 mV for 100 ms of each step. Whole-cell currents were measured at 0 mV and normalized to current after external buffer addition. […] To obtain the concentration-response relationship graphs and IC50 values, we take the median value of the last 7 current amplitude values obtained for each set of data points collected for a given concentration at a particular step.

Data set [4] has as its system WT SLACK. More on the design: method as in earlier work. The settings on record: APC assay; read-out: IC50 versus WT SLACK; cited from earlier work.
The subject of the next data set is A934T SLACK. More on the design: method as in PMID 37812884. As to conditions: Tl+-flux assay; read-out: IC50 versus A934T SLACK; cited from earlier work.
Data set [5] relates to WT SLACK. More on the design: method as in PMID 37812884. As to conditions: whole-cell APC, CHO cells stably expressing WT SLACK; read-out: IC50 versus WT SLACK; cited from earlier work.
Details of data set [6]: method as in PMID 37812884. The settings on record: cited from earlier work.

Where two headings read alike, the source gives them in different places.

The values below come from article PMC11173529, “Structure–Activity Relationship Studies in a Series of Xanthine Inhibitors of SLACK Potassium Channels” (Molecules, 2024).

The term IC50 denotes the concentration at which inhibition is half-maximal. As for `COc1ccc(Cl)cc1NC(=O)CN1CCN(S(=O)(=O)N2CCC(C)CC2)CC1` [Compound 6], the “frequency of spontaneous calcium oscillations” value in data set [1] was “inhibited the frequency of spontaneous calcium oscillations”. Besides, the IC50 in the data set on WT SLACK [2] is 1700 nM; with hERG channel it was greater than 10000 nM.
For the compound `O=C(Nc1cccc(C(F)(F)F)c1)c1ccc2nc(N3C(=O)c4ccccc4C3=O)sc2c1` [Compound 2], the IC50 in the data set with WT SLACK [3] was 3000 nM. Also, the “hERG (KV11.1) inhibition” value with hERG (KV11.1) channels is listed as 10–20%.
Consider `C[C@H](NC(=O)c1cc(C(F)(F)F)nn1C)c1nc(-c2ccnc(C(F)(F)F)c2)no1` [Compound 4], for which the “displacement at GABAA Cl– channels” value in the data set on GABAA Cl– channels was 74%. The IC50 in the data set with SLACK is 40 nM. Also, in the data set with Kcnt1^L/L mice, the anticonvulsant effects entry is on record as “demonstrated anticonvulsant effects”.
As for `O=C(Nc1cccc(C(F)(F)F)c1)c1ccc(CSc2nnnn2-c2ccccc2)cc1` [Compound 3], the IC50 with WT SLACK [3] is 1600 nM. Further, the “hERG (KV11.1) inhibition” value with hERG (KV11.1) channels is 45%.
Turning to `Cc1cccc(CC(=O)Nc2cnn(-c3cccc(C(=O)NCc4ccccc4-n4cncn4)c3)c2)c1` [Compound 1], the IC50 in the data set with WT SLACK [3] was 3200 nM. The “hERG (KV11.1) inhibition” value with hERG (KV11.1) channels is given as “almost completely inhibited”.
Turning to `COc1ccc(CN(C)c2nc3c(c(=O)n(Cc4ccccc4)c(=O)n3C)n2C)cc1` [Analog 61], at WT hSLACK, the “SLACK Imax” value worked out at 100% and the IC50 was determined as 2400 nM.
Turning to `CN(Cc1ccccc1)c1nc2c(c(=O)n(Cc3cccc(Cl)c3)c(=O)n2C)n1C` [Analog 20], at WT hSLACK, the “SLACK Imax” value came out at 100% and the IC50 is 1900 nM.
As to `CN(Cc1ccccc1)c1nc2c(c(=O)n(Cc3cccc(C#N)c3)c(=O)n2C)n1C` [Analog 29], at WT hSLACK, the “SLACK Imax” value stood at 100% and the IC50 is 2400 nM.
For the compound `CCN(Cc1ccccc1)c1nc2c(c(=O)n(Cc3ccccc3)c(=O)n2C)n1C` [Analog 67], on WT hSLACK, the “SLACK Imax” value was 100% and the IC50 is 1400 nM.
On to `CN(Cc1ccccc1F)c1nc2c(c(=O)n(Cc3ccccc3)c(=O)n2C)n1C` [Analog 47], for which, at WT hSLACK, the “SLACK Imax” value is listed as 100% and the IC50 was 2700 nM.
Turning to `Cc1ccccc1Cn1c(=O)c2c(nc(N(C)Cc3ccccc3)n2C)n(C)c1=O` [Analog 22], on WT hSLACK, the “SLACK Imax” value amounted to 100% and the IC50 was 1600 nM.
`CCCn1c(N(C)Cc2ccccc2)nc2c1c(=O)n(Cc1ccccc1)c(=O)n2C` [Analog 42]: on WT hSLACK, the “SLACK Imax” value was 94% and the IC50 is greater than 10000 nM.
Taken in the same sequence, the figures for `CN(Cc1ccccc1)c1nc2c(c(=O)n(Cc3ccccc3)c(=O)n2C)n1CC1CC1` [Analog 43] were 55% and greater than 10000 nM.
On to `O=C(N[C@@H]1CCc2cc(Cl)ccc21)c1ccc(S(=O)(=O)N2CCCC2)s1` [Compound 5], for which the IC50 with WT SLACK [4] was less than 1000 nM.
For `Cc1ccc2cccc(S(=O)(=O)N3CC(c4nc(-c5ccc(F)cc5)no4)C3)c2n1` [Compound 7], the IC50 is 670 nM in the data set with A934T SLACK and 320 nM in the data set with WT SLACK [5]. Also, in [6], the “metabolism in mouse liver microsomes” value is recorded as “rapidly metabolized”.
As to `CC(C)N(Cc1ccccc1)c1nc2c(c(=O)n(Cc3ccccc3)c(=O)n2C)n1C` [Analog 69], on WT hSLACK, the “SLACK Imax” value was 100% and the half-inhibitory concentration (IC50) is 3400 nM.
Regarding `CN(Cc1ccc(C(F)(F)F)cc1)c1nc2c(c(=O)n(Cc3ccccc3)c(=O)n2C)n1C` [Analog 58], at WT hSLACK, the “SLACK Imax” value came to 100% and the IC50 worked out at 1900 nM.
As for `CN(Cc1ccccc1)c1nc2c(c(=O)n(Cc3cccc(F)c3)c(=O)n2C)n1C` [Analog 17], at WT hSLACK, the “SLACK Imax” value came out at 100% and the IC50 was 1600 nM.
For `COc1ccc(Cn2c(=O)c3c(nc(N(C)Cc4ccccc4)n3C)n(C)c2=O)cc1` [Analog 33], on WT hSLACK, the “SLACK Imax” value was determined as 78% and the IC50 was greater than 10000 nM.
For `CN(Cc1cccc(Cl)c1)c1nc2c(c(=O)n(Cc3ccccc3)c(=O)n2C)n1C` [Analog 51], at WT hSLACK, the “SLACK Imax” value was found to be 100% and the IC50 is 1700 nM.
Taken in the same sequence, the figures for `CN(Cc1ccccc1)c1nc2c(c(=O)n(Cc3ccccc3F)c(=O)n2C)n1C` [Analog 16] were 100% and 1800 nM.
